# Laboratory results: patent US20080206175A1, “Composition for Skin Whitening and Wrinkle Improvement Comprising Vaccinium Uliginosum Extract and Method for Preparation Thereof” (priority 2005, published 2008)
# Tests used:
# [1] = system: B16 melanoma F10 cells; assay: Inhibitory effect on total melanin production upon ultraviolet irradiation, B16 melanoma F10 cells; format: cell-based
# [2] = system: B16 melanoma F10 cells; assay: Inhibitory effect on melanin production in B16 melanoma F10 cells; format: cell-based; conditions: 10 μM, 72 hours
# Method: B 16 melanoma F 10 cells were seeded into each well of a 24-well plate at a cell concentration of 10^4 cells/well. After 17 hours, the adhesion of the cells was confirmed and the medium was removed. […] The plate was incubated in a CO2 incubator for 72 hours and then the medium was removed. Next, 2 ml of NaOH was added into each well of the plate, followed by standing at 60° C. for 30 minutes. Then, the cell solution was measured for absorbance at 450 nm. The concentration of melanin was calculated compared to the melanin standard curve.
structure (smiles),measurement,setting,value
O=c1cc(CO)occ1O [kojic acid],melanin production upon ultraviolet irradiation,[1]; 0.2 μM,22.72 µg/mL
same,melanin production upon ultraviolet irradiation,[1]; 2 μM,19.22 µg/mL
same,production of melanin,[2],16.54 µg/mL
